Laboratory results reported in patent publication US10209240B2, “Predicting human developmental toxicity of pharmaceuticals using human stem-like cells and metabolomic ratios” (STEMINA BIOMARKER DISCOVERY, INC., priority 2012, dated 2019).
Where two headings read alike, the source gives them in different places.

Experiments:
zebrafish = settings: training and test set; weak/moderate and strong teratogens both labeled teratogen; cited from earlier work
[1] = therapeutic peak plasma in vivo concentration, human, cited from earlier work
rat whole embryo = settings: training and test set; weak/moderate and strong teratogens both labeled teratogen; cited from earlier work
[2] = system: mouse embryonic stem cell; settings: training and test set; weak/moderate and strong teratogens both labeled teratogen; cited from earlier work
Humans = settings: cited from earlier work; for Humans (known human developmental toxicity): training and test set; for Known Effect: validation and test set treatments of Example 2
WA09 hES cells [3] = assay: Phase 2 targeted biomarker assay, ornithine/cystine ratio, 9-point dose response
How it was run: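 WA09 hES cells (≤ passage 40), plated as single cells at 100,000/well on Matrigel in mTeSR1 with 10 μM Y27632, dosed 24 h later with nine 3-fold dilutions, 0.04–300 μM, 0.1% DMSO, for 72 h. Final-24 h spent medium, spiked with 13C6-arginine and filtered (<10 kDa), analysed by LC-HRMS; viability by CellTiter-Fluor.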

[4] = summarized from TERIS and Briggs et al. 2011, cited from earlier work
Rabbit = settings: training and test set; cited from earlier work
hES cells [5] = assay: ADMA/cystine ratio simplified predictive model in hES cell spent media; format: cell-based, human; settings: single dose per treatment; ratios less than 0.9 indicate teratogenicity
From the text: (§1) This simplified model is based on a ratio of the reference treatment (DMSO) normalized values of ADMA and cystine.
The X-axis is the reference normalized ratio of ADMA/Cystine. The y-axis is the training set of pharmaceuticals. Grey color with triangle glyphs represents teratogens and black color with circle glyphs represents non-teratogens. Each glyph point represents the media value of an independent experimental block (6 reps per block). The crosshair glyphs mark the sample medians. In FIG. 9, grey vertical line is threshold of teratogenicity, grey horizontal lines are the median absolute deviations, and black vertical line designates 1.0. The arrows at the bottom indicate the values used for differentiation of teratogens and nonteratogens, utilizing a cut off of 0.9 (grey line).

Rodent = settings: training and test set; cited from earlier work
hES cells [6] = assay: devTOX computational model predictions (Version 2.0, Version 2.1) from hES cell metabolomics; format: cell-based, human; settings: single dose per treatment (Dose column)
From the text: The selection process weighted the predictive capacity of a feature, overall intensity, and peak shape to identify very well behaved features/metabolites that could be measured by targeted LC-MS or even by other detection systems.
as §1

WA09 hES cells [7] = system: WA09 hES cells
[8] = test set, interpolated concentration where cell viability dose response curve crosses teratogenicity threshold 0.88, 72 hours
[9] = test set, teratogenicity potential scored against therapeutic Cmax

Row | Compound | ZET prediction (zebrafish) | Cmax ([1]; training set) | WEC prediction (rat whole embryo) | mEST prediction [2] | Humans (known human developmental toxicity) (Humans) | Known Effect (Humans) | Change in the o/c ratio, also relative to cytotoxicity (WA09 hES cells [3]) | O/C Ratio Prediction (WA09 hES cells [3]) | Targeted Biomarker Assay prediction (WA09 hES cells [3]) | Teratogenicity Potential (μM) O/C Ratio (WA09 hES cells [3]; human, 72 h) | Preclinical in vivo and known human developmental effects ([4]; training set compounds) | Rabbit prediction (Rabbit) | Model Predictions ADMA/Cystine (hES cells [5]) | Rodent prediction (Rodent) | Model Predictions Version 2.0 (hES cells [6]) | Model Predictions Version 2.1 (hES cells [6]) | Viability Prediction (WA09 hES cells [7]) | Teratogenicity Potential (μM) Cell Viability (WA09 hES cells [7]; human, 72 h) | Cmax ([1]; test set) | Preclinical in vivo and known human developmental effects ([4]; test set compounds) | other results
1 | O=c1[nH]cc(F)c(=O)[nH]1 [5-Fluorouracil] | TER^c | 4.25 µM | TER^f,k | TER^b,i | TER | Ter | change in o/c ratio that is directly correlated with a decrease in cell viability | TER | TER | 3 µM | Craniofacial, central | TER | Ter | TER | Ter | Ter | TER | 2 µM | – | – | Cytotoxicity at the Cmax exposure level (WA09 hES cells [7]; human, 72 h): greater than 30%
2 | CC(=O)Nc1ccc(O)cc1 [Acetaminophen] | NON^e | – | TER^k | – | NON | – | – | NON | NON | >300 µM | – | – | – | NON | – | – | NON | >300 µM | 116 µM | None | –
3 | CC1=C(/C=C/C(C)=C/C=C/C(C)=C/CO)C(C)(C)CCC1 [Retinol] | TER^c,n | 2.4 µM | TER^q | NON^p | NON | Non | o/c ratio is directly correlated with cell death | NON | NON | 42.2 µM | Low Doses: None; High | TER | Non | TER | Ter | Non | NON | 42.8 µM | – | – | Dose shown to cause malformations (Humans; experimental animals and humans, Teratology Society 1987): > 25,000 IU/day; Dose without adverse effect on the developing fetus (FDA maximum RDA) (Humans; human pregnancy): ≤ 8,000 IU; Classification by o/c ratio in the targeted biomarker assay (WA09 hES cells [3]): correctly classify; Exposure level of o/c ratio change/cell death relative to levels normally encountered by humans (WA09 hES cells [3]; human, 72 h): ~20 times
4 | Cytosine Arabinoside | TER^n | 0.6 µM | TER^j | TER^i | – | Ter | – | – | – | – | Limb | – | Ter | TER | Ter | Ter | – | – | – | – | Teratogenicity Potential (μM) O/C Ratio (WA09 hES cells [3]; training set, interpolated concentration where o/c ratio dose response curve crosses teratogenicity threshold 0.88, 72 hours): 0.04 µM; Teratogenicity Potential (μM) Cell Viability (WA09 hES cells [7]): 0.1 µM
5 | CC(C)(S)[C@@H](N)C(=O)O [D-Penicillamine] | NON^d | – | NON^f | NON^m | TER | – | – | TER | TER | <0.04 µM | – | – | – | TER | – | – | NON | >300 µM | 13.4 µM | Skeletal | Classification by o/c ratio in the targeted biomarker assay (WA09 hES cells [3]): correctly classify
6 | CN(Cc1cnc2nc(N)nc(N)c2n1)c1ccc(C(=O)N[C@@H](CCC(=O)O)C(=O)O)cc1 [Methotrexate] | TER^d | 0.2 µM | TER^f | TER^b,i | TER | Ter | – | TER | TER | 0.05 µM | Craniofacial, limb, skeletal, | TER | Ter | TER | Ter | Ter | TER | 0.05 µM | – | – | Cytotoxicity at the Cmax exposure level (WA09 hES cells [7]; human, 72 h): greater than 30%
7 | O=C1NS(=O)(=O)c2ccccc21 [Saccharin] | NON^c,e | 1.4 µM | NON^j | NON^b,i | NON | Non | no change in the o/c ratio or viability | NON | NON | >300 µM | None | NON | Non | NON | Non | Non | NON | >300 µM | – | – | –
8 | S=P(N1CC1)(N1CC1)N1CC1 [ThioTEPA] | TER^v | – | – | – | TER | – | – | TER | TER | 0.04 µM | – | TER | – | TER | – | – | – | – | 7 µM | Skeletal, embryo toxicity^c | Teratogenicity Potential (μM) Cell Viability (WA09 hES cells [7]; [8]): 0.5 µM; Viability Prediction (WA09 hES cells [7]; [9]): TER
9 | CCOC(=O)N1CCC(=C2c3ccc(Cl)cc3CCc3cccnc32)CC1 [Loratadine] | TER^d | – | NON^f,j | NON^i | – | – | – | – | – | – | – | NON | – | NON | – | – | – | – | – | None | Targeted Biomarker Assay prediction (WA09 hES cells [3]; training and test set, o/c ratio scored against therapeutic Cmax): NON; Teratogenicity Potential (μM) Cell Viability (WA09 hES cells [7]; [8]): 76.3 µM; Viability Prediction (WA09 hES cells [7]; [9]): NON
